Assay results published in patent US20210290576A1, “STRUCTURALLY MODIFIED FATTY ACIDS FOR IMPROVING GLYCEMIC CONTROL AND TREATING INFLAMMATORY BOWEL DISEASE” (NORTHSEA THERAPEUTICS B.V., priority 2018, published 2021).

Key:
[1] = Excretion balance: recovery of radioactivity in excreta; assay type: in vivo, male albino rats; details: single oral 50 mg/kg [14C]-Compound B
Experimental: Biological Example 8. Recovery of Radioactivity in the Excreta of Male Albino Rats after a Single Oral Administration of [14C]-Compound B at a Nominal Dose Level of 50 mg/kg Body Weight
To assess Compound B clearance via urine versus feces, the excretion pattern of a single oral dose of [14C]-Compound B was determined in male albino rats. […] The total excretion of radioactivity following oral administration was >95% within the first 48 hours. Excretion via the urine accounted for 12% of the administered dose. […]

[2] = tested on: B6.V-Lepob/Jrj mice (ob/ob), T2DM rodent model; experiment: Glucose tolerance (0-120 mins) after 28-day treatment in ob/ob mice; assay type: in vivo; details: 28 days; for glucose tolerance: 2 g/kg oral glucose load
Experimental: This study was carried out to assess the effects of chronic treatment with Compound B or Compound A on glucose tolerance in a T2DM rodent model.
For assessing the effects of Compound B, B6.V-Lepob/Jrj mice (ob/ob) mice were administered Compound B at one of 2 doses, 125 and 250 mg/kg for 28 days. […] After the oral glucose load, plasma glucose was measured at multiple time points from and AUC (0-120 mins) for glucose was calculated.

active GLP-1 = experiment: Active GLP-1 during an oral glucose tolerance test (OGTT) and at 24 h in lean male SPD rats; assay type: in vivo, Sprague-Dawley (SPD) rats; details: in combination with DPP4 inhibitor (linagliptin); Compound A 74 mg/kg, Compound B 84 mg/kg, two oral doses
Experimental: (§1) Evaluation of the Acute Effects of Compound a and Compound B Upon Active GLP-1 wconcentrations during an oral glucose tolerance test (OGTT) and at 24 h in lean male SPD Rats
(§2) To establish the acute effects of oral administration of Compound A and Compound B upon active GLP-1 and insulin concentrations, lean (about 300 g) male Sprague-Dawley (SPD) rats were divided into groups (n=6-8) and fed 74 and 84 mg/kg body weight of Compound A or Compound B respectively, either with or without concurrent administration of a dipeptidyl peptidase 4 (DPP-4) inhibitor 60 minutes prior to an oral glucose tolerance test (OGTT) as outlined below. Parallel groups receiving either corn oil alone (corn oil+vehicle, n=10) or corn oil and a DPP-4 inhibitor (“DPP-4 i”) (corn oil+(DPP-4 i), n=10) were included as controls. The DPP-4 inhibitor was linagliptin.
(§3) A second oral dose of 74 and 84 mg/kg bodyweight of Compound A or Compound B respectively was administered at 240 minutes and ad lib feeding was initiated. A second dose of DPP-4 inhibitor was administered at 480 mins prior to lights out. Blood samples were collected at 24 h for measurement of active GLP-1 and insulin. All values are mean, figures depict mean values (SEM).

plasma insulin = experiment: Plasma insulin at 24 h after OGTT in lean male SPD rats; assay type: in vivo, Sprague-Dawley (SPD) rats; details: non-significant
Experimental: as §1, §2, §3

[3] = 250 mg/kg once daily oral gavage

SMILES: CC/C=C\C/C=C\C/C=C\C/C=C\C/C=C\CCCCSC(CC)(CC)C(=O)O [Compound B, 2-ethyl-2-((5Z,8Z,11 Z,14Z,17Z)-icosa-5,8,11,14,17-pentaenylthio)butanoic acid]
- % Recovery of Administered Dose, Mean total radioactivity ([1]; 0-168 h, n = 3): 101%
- total excretion of radioactivity within the first 48 hours [1]: > 95%
- glucose tolerance ([2]; 125 mg/kg once daily oral gavage): improved glucose tolerance
- AUC (0-120 mins) glucose [2, 3]: potent and highly significant (p<0.001) reduction
- glucose tolerance [2, 3]: improved glucose tolerance
- active GLP-1 concentrations at 24 h versus corn oil+vehicle (active GLP-1): significantly (p<0.01) increased
- increase of plasma insulin concentrations at 24 h versus corn oil+vehicle and corn oil+DPP4 inhibitor (plasma insulin; compound alone): 25%
- increase of plasma insulin concentrations at 24 h versus corn oil+vehicle and corn oil+DPP4 inhibitor (plasma insulin; in combination with DPP4 inhibitor (linagliptin)): 40%
